Measurements reported in patent US12258423B2, “Stapled and stitched polypeptides and uses thereof” (President and Fellows of Harvard College, priority 2013, dated 2025).

Assay: Circular dichroism (CD) spectroscopy of peptide helicity
Conditions: unlabeled peptide, 10 mM sodium phosphate pH 7.0, FIG. 11D
Experimental: Circular Dichroism (CD) Spectroscopy: CD spectra (FIGS. 11A-11D) were obtained using unlabeled peptides in 10 mM sodium phosphate pH 7.0 buffer. The raw data has been converted to the concentration-independent unit of molar ellipticity. α-Helices typically show dual minima at approximately 208 nm and 222 nm and a maximum at approximately 192 nm.

## CC(=O)N[C@H](C(=O)N[C@@H](CO)C(=O)N[C@@H](Cc1ccccc1)C(=O)N[C@]12CCN(C1)C(=O)OCCCCOC(=O)N1CC[C@@](C(N)=O)(C1)NC(=O)[C@H](CC(C)C)NC(=O)[C@H](CC(C)C)NC(=O)[C@H](C)NC(=O)[C@H](Cc1[nH]cc3ccccc13)NC(=O)[C@H](Cc1ccc(O)cc1)NC(=O)[C@H](CCC(=O)O)NC2=O)C(C)O (single isomer, unassigned) [Ac-PM2 PyrR/PyrS Alloc-Stapled]
  α-helical character (CD spectrum): a-helical
